Values of other authors, collected in patent EP1190712A1 (SMB Technology, priority 2000, dated 2002).

Settings: human, in vivo

Q: Which “Cmax (time)” value does the source give for `COc1cccc(C2(O)CCCCC2CN(C)C)c1` (stereo not shown) [Tramadol] here?
A: 30 to 60 min
